The text below walks through data of patent publication US10058550B2, “Methods of treating heart failure” (priority 2015, dated 2018).

This assay concerns the target human APJ receptor (Homo sapiens (Human), UniProt P35414). Put plainly: biochemical. It counts as biochemical. The note with it: read-out: Activity hAPJ SPA EC50 IP. The method in brief:
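Membranes from CHO cells stably expressing cloned human APJ were incubated with WGA SPA beads in 20 mM HEPES pH 7.5, 5 mM MgCl2, 0.1% BSA, 200 mM NaCl and 3 μM GDP. Reaction started with 0.2 nM [35S]GTPγS ± ligands, 90 min at RT. EC50 obtained by non-linear regression as mean of independent experiments.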

human APJ receptor, sequence (P35414 whole entry): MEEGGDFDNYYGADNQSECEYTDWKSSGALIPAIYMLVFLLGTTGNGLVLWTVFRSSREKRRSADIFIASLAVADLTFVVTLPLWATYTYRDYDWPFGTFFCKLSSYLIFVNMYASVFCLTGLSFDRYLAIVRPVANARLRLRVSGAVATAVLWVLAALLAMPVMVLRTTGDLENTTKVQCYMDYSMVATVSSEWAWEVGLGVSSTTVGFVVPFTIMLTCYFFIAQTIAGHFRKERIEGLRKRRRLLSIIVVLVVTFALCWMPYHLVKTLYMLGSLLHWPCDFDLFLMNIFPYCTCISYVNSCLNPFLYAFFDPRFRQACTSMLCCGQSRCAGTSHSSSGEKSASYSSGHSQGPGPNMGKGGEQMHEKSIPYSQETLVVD

Consider `COc1cccc(-c2nnc(NS(=O)(=O)[C@@H](C)[C@H](OC)c3ncc(C)cn3)n2-c2ccc(Cl)cc2)n1` [Example 45.0, (1R,2S)-N-(4-(4-chlorophenyl)-5-(6-methoxy-2-pyridinyl)-4H-1,2,4-triazol-3-yl)-1-methoxy-1-(5-methyl-2-pyrimidinyl)-2-propanesulfonamide], for which the EC50 came out at 96 nM.
The value for `COc1ccc(-n2c(NS(=O)(=O)[C@@H](C)[C@H](OC)c3ncc(C)cn3)nnc2-c2cccc(OC)n2)cc1` [Example 46.0, (1R,2S)-1-methoxy-N-(4-(4-methoxyphenyl)-5-(6-methoxy-2-pyridinyl)-4H-1,2,4-triazol-3-yl)-1-(5-methyl-2-pyrimidinyl)-2-propanesulfonamide] was 75 nM.
With `COc1cccc(-c2nnc(NS(=O)(=O)[C@@H](C)[C@H](OC)c3ncc(C)cn3)n2-c2cccc(F)c2)n1` [Example 47.0, (1R,2S)-N-(4-(3-fluorophenyl)-5-(6-methoxy-2-pyridinyl)-4H-1,2,4-triazol-3-yl)-1-methoxy-1-(5-methyl-2-pyrimidinyl)-2-propanesulfonamide], the EC50 worked out at 8.8 nM.
Regarding `CCO[C@H](c1ncc(F)cn1)[C@H](C)S(=O)(=O)Nc1nnc(-c2cccc(OC)n2)n1-c1c(OC)cccc1OC` [Example 48.0, (1R,2S)-N-(4-(2,6-dimethoxyphenyl)-5-(6-methoxy-2-pyridinyl)-4H-1,2,4-triazol-3-yl)-1-ethoxy-1-(5-fluoro-2-pyrimidinyl)-2-propanesulfonamide], the EC50 is 0.18 nM.
In the case of `COc1cnc([C@@H](OC)[C@H](C)S(=O)(=O)Nc2nnc(-c3cccc(OC)n3)n2-c2c(OC)cccc2OC)nc1` [Example 49.0, (1R,2S)-N-(4-(2,6-dimethoxyphenyl)-5-(6-methoxy-2-pyridinyl)-4H-1,2,4-triazol-3-yl)-1-methoxy-1-(5-methoxy-2-pyrimidinyl)-2-propanesulfonamide], the EC50 turned out to be 0.17 nM.
Consider `CCO[C@H](c1ncc(F)cn1)[C@H](C)S(=O)(=O)Nc1nnc(-c2cccc(OC)n2)n1-c1ccccc1` [Example 50.0, (1R,2S)-1-ethoxy-1-(5-fluoro-2-pyrimidinyl)-N-(5-(6-methoxy-2-pyridinyl)-4-phenyl-4H-1,2,4-triazol-3-yl)-2-propanesulfonamide], for which the EC50 turned out to be 9.3 nM.
Regarding `CCO[C@H](c1ncc(F)cn1)[C@H](C)S(=O)(=O)Nc1nnc(-c2cccnc2)n1-c1c(OC)cccc1OC` [Example 51.0, (1R,2S)-N-(4-(2,6-dimethoxyphenyl)-5-(3-pyridinyl)-4H-1,2,4-triazol-3-yl)-1-ethoxy-1-(5-fluoro-2-pyrimidinyl)-2-propanesulfonamide], the EC50 came to 0.71 nM.
As for `COc1cccc(-c2nnc(NS(=O)(=O)[C@@H](C)[C@H](OC)c3ncc(C)cn3)n2-c2ccc3ccccc3c2)n1` [Example 53.0, (1R,2S)-1-methoxy-N-(5-(6-methoxy-2-pyridinyl)-4-(2-naphthalenyl)-4H-1,2,4-triazol-3-yl)-1-(5-methyl-2-pyrimidinyl)-2-propanesulfonamide], the EC50 was found to be 53 nM.
For the compound `COC(=O)c1cccc(-n2c(NS(=O)(=O)[C@@H](C)[C@H](OC)c3ncc(C)cn3)nnc2-c2cccc(OC)n2)c1` [Example 54.0, methyl 3-(3-((((1S,2R)-2-methoxy-1-methyl-2-(5-methyl-2-pyrimidinyl)ethyl)sulfonyl)amino)-5-(6-methoxy-2-pyridinyl)-4H-1,2,4-triazol-4-yl)benzoate], the 50% effective concentration (EC50) came out at 12 nM.
Take `COc1cccc(-c2nnc(NS(=O)(=O)[C@@H](C)[C@H](OC)c3ncc(C)cn3)n2-c2cccc(C#N)c2)n1` [Example 56.0, (1R,2S)-N-(4-(3-cyanophenyl)-5-(6-methoxy-2-pyridinyl)-4H-1,2,4-triazol-3-yl)-1-methoxy-1-(5-methyl-2-pyrimidinyl)-2-propanesulfonamide]: the EC50 was 31 nM.
Turning to `COc1cnc([C@@H](OC)[C@H](C)S(=O)(=O)Nc2nnc(-c3cncc(C)c3)n2-c2c(OC)cccc2OC)nc1` [Example 57.0, (1R,2S)-N-(4-(2,6-dimethoxyphenyl)-5-(5-methyl-3-pyridinyl)-4H-1,2,4-triazol-3-yl)-1-methoxy-1-(5-methoxy-2-pyrimidinyl)-2-propanesulfonamide], the concentration for a half-maximal effect (EC50) was found to be 0.55 nM.
As for `COc1cnc([C@@H](OC)[C@H](C)S(=O)(=O)Nc2nnc(-c3cccnc3)n2-c2c(OC)cccc2OC)nc1` [Example 58.0, (1R,2S)-N-(4-(2,6-dimethoxyphenyl)-5-(3-pyridinyl)-4H-1,2,4-triazol-3-yl)-1-methoxy-1-(5-methoxy-2-pyrimidinyl)-2-propanesulfonamide], the EC50 was 0.5 nM.
Consider `COc1cnc([C@@H](OC)[C@H](C)S(=O)(=O)Nc2nnc(-c3cncc(C)c3)n2-c2ccccc2)nc1` [Example 59.0, (1R,2S)-1-methoxy-1-(5-methoxy-2-pyrimidinyl)-N-(5-(5-methyl-3-pyridinyl)-4-phenyl-4H-1,2,4-triazol-3-yl)-2-propanesulfonamide], for which the concentration for a half-maximal effect (EC50) worked out at 26 nM.
For `COc1cccc(-c2nnc(NS(=O)(=O)[C@@H](C)[C@H](OC)c3ncc(C)cn3)n2-c2cccc(Br)c2)n1` [Example 60.0, (1R,2S)-N-(4-(3-bromophenyl)-5-(6-methoxy-2-pyridinyl)-4H-1,2,4-triazol-3-yl)-1-methoxy-1-(5-methyl-2-pyrimidinyl)-2-propanesulfonamide], the concentration giving a half-maximal response (EC50) turned out to be 12 nM.
Take `COc1cccc(-c2nnc(NS(=O)(=O)[C@@H](C)[C@H](OC)c3ncc(C)cn3)n2-c2cccc(C)c2)n1` [Example 62.0, (1R,2S)-1-methoxy-N-(5-(6-methoxy-2-pyridinyl)-4-(3-methylphenyl)-4H-1,2,4-triazol-3-yl)-1-(5-methyl-2-pyrimidinyl)-2-propanesulfonamide]: the EC50 is 6 nM.
For `COc1cccc(-c2nnc(NS(=O)(=O)[C@@H](C)[C@H](OC)c3ncc(C)cn3)n2-c2ccc(F)c(C(F)(F)F)c2)n1` [Example 63.0, (1R,2S)-N-(4-(4-fluoro-3-(trifluoromethyl)phenyl)-5-(6-methoxy-2-pyridinyl)-4H-1,2,4-triazol-3-yl)-1-methoxy-1-(5-methyl-2-pyrimidinyl)-2-propanesulfonamide], the concentration for a half-maximal effect (EC50) amounted to 350 nM.
Take `COc1cccc(-n2c(NS(=O)(=O)[C@@H](C)[C@H](OC)c3ncc(C)cn3)nnc2-c2cccc(OC)n2)c1` [Example 64.0, (1R,2S)-1-methoxy-N-(4-(3-methoxyphenyl)-5-(6-methoxy-2-pyridinyl)-4H-1,2,4-triazol-3-yl)-1-(5-methyl-2-pyrimidinyl)-2-propanesulfonamide]: the concentration for a half-maximal effect (EC50) was 10 nM.
Turning to `COc1cccc(-c2nnc(NS(=O)(=O)[C@@H](C)[C@H](OC)c3ncc(C)cn3)n2-c2ccc(F)cc2)n1` [Example 65.0, (1R,2S)-N-(4-(4-fluorophenyl)-5-(6-methoxy-2-pyridinyl)-4H-1,2,4-triazol-3-yl)-1-methoxy-1-(5-methyl-2-pyrimidinyl)-2-propanesulfonamide], the EC50 worked out at 180 nM.
Regarding `COc1cccc(-c2nnc(NS(=O)(=O)[C@@H](C)[C@H](OC)c3ncc(C)cn3)n2-c2cccc(Cl)c2)n1` [Example 66.0, (1R,2S)-N-(4-(3-chlorophenyl)-5-(6-methoxy-2-pyridinyl)-4H-1,2,4-triazol-3-yl)-1-methoxy-1-(5-methyl-2-pyrimidinyl)-2-propanesulfonamide], the EC50 is 24 nM.

By EC50 is commonly meant the concentration needed to bring the measured effect to its halfway point.
